Reference: publication PMC8397948, “Effect of Selected Antidepressants on Placental Homeostasis of Serotonin: Maternal and Fetal Perspectives” (Pharmaceutics, 2021)
Where a name gives a salt, the structure may show the parent alone.

Tests used:
OCT3 [1] = target: T1, OCT3 (Rattus norvegicus, UniProt O88446); assay: In situ open-circuit perfusion of rat term placenta: 5-HT extraction from fetal circulation; assay type: in vivo
T1 sequence (O88446 1-551): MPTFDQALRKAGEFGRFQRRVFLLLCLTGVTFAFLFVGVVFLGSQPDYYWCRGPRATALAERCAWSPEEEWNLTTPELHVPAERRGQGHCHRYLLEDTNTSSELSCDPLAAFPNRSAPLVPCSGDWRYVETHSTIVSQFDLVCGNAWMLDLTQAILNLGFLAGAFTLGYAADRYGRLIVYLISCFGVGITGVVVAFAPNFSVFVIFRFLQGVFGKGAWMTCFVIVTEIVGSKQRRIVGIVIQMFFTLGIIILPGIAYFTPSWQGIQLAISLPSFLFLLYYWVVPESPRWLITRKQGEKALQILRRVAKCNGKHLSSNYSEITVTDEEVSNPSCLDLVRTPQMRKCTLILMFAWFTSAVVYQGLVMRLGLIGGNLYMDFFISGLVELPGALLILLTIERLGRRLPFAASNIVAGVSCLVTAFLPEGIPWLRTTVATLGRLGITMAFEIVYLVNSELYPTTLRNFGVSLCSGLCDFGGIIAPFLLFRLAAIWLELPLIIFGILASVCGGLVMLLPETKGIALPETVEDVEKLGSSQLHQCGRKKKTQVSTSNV

[2] = pregnant women or women; read-out: Cmax (maximum steady-state plasma concentration); cited from earlier work
[3] = Published plasma concentrations and fetal-to-maternal ratios in (pregnant) women; assay type: in vivo, human; settings: matches Ca x F/M ratio of published values
OCT3 [4] = target: T2, OCT3 (Homo sapiens, UniProt O75751); assay: [3H]5-HT uptake by basal membrane (BM) vesicles from human term placenta; assay type: biochemical; settings: 100 nM [3H]5-HT, 10 min preincubation, room temperature, n ≥ 4, read-out: IC50 BM (OCT3-mediated 5-HT uptake)
T2 construct: MVM and BM vesicles were used to evaluate the effects of antidepressants on SERT- and OCT3-mediated uptake of 5-HT, respectively; from tissue; host or cells: human term placenta, basal membrane (BM) vesicles
T2 sequence (O75751 1-556): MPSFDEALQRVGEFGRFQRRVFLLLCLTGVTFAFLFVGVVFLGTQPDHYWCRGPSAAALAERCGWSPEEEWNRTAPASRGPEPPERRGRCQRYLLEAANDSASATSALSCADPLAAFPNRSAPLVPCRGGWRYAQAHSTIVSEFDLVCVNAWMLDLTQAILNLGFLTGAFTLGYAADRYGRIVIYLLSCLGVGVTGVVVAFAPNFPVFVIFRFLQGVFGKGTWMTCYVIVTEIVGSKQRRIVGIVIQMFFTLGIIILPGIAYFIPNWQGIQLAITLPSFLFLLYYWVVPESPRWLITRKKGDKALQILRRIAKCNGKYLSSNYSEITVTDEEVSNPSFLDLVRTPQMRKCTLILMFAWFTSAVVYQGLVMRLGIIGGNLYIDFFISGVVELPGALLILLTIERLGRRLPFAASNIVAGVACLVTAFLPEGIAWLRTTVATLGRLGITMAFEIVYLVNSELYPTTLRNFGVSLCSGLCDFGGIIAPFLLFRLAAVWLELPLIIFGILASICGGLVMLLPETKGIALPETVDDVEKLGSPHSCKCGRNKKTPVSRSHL
Method: Maternal decidua and chorionic plate were removed, and placental villous tissue was cut into small pieces. The tissue was homogenized in a solution containing 250 mM sucrose, 10 mM Tris-Hepes (pH 7.2), 5 mM EGTA, 5 mM EDTA and 1 mM phenylmethylsulfonyl fluoride (PMSF). Microvillous and basal membrane (MVM and BM, respectively) vesicles were prepared simultaneously, using a previously described differential centrifugation method based on Mg^2+ precipitation and separation of MVM and BM in a sucrose gradient [40]. All these procedures were performed at 4 °C.
MVM and BM samples were resuspended in intravesicular buffer (290 mM sucrose, 5 mM Hepes, 5 mM Tris; pH 7.4), and vesiculated by passaging 20 times through a 25-gauge needle as previously described [32]. Protein concentration was measured using the BCA assay.
Uptake of [^3H]5-HT into MVM or BM vesicles was measured at room temperature using the rapid vacuum filtration technique as previously described [32]. […] Filter-associated radioactivity was determined by liquid scintillation counting. Non-specific tracer binding to the filter and plasma membranes was accounted for by subtracting radioactivity measured in protein-free controls and uptake at time zero, respectively, from the total vesicle uptake measurements. […]

[5] = 1 µM (therapeutic concentration), fetal sex not considered
[6] = 100 µM antidepressant, 1 nM [3H]5-HT, both fetal sexes together, vs control
[7] = 100 µM antidepressant, male placentas

SMILES	Effect on placental extraction of 5-HT from fetal circulation (OCT3 [1]; [5])	Effect on placental extraction of 5-HT from fetal circulation (OCT3 [1]; [6])	Cmax [2]	Effect on 5-HT extraction from circulation of male fetuses (OCT3 [1]; [7])	further results
CN(C)CCCC1(c2ccc(F)cc2)OCc2cc(C#N)ccc21 (centres unmarked) [Citalopram, citalopram hydrobromide]	no significant inhibition	significantly decreased	1.2 µM	–	–
CNCCC(Oc1ccc(C(F)(F)F)cc1)c1ccccc1 (centres unmarked) [Fluoxetine, fluoxetine hydrochloride]	–	–	–	susceptible to inhibition	–
COCCCC/C(=N\OCCN)c1ccc(C(F)(F)F)cc1 [Fluvoxamine, fluvoxamine maleate]	no significant inhibition	significantly decreased	1.3 µM	susceptible to inhibition	Ca;fetal (average fetal plasma concentration) [3]: 348 nM; IC50 (OCT3 [4]): 15.2 nM
Fc1ccc([C@@H]2CCNC[C@H]2COc2ccc3c(c2)OCO3)cc1 [Paroxetine, paroxetine hydrochloride]	no significant inhibition	significantly decreased	1 µM	susceptible to inhibition	Effect on 5-HT extraction from fetal circulation in male placentas (OCT3 [1]; 1 µM (therapeutic concentration), male placentas): potent inhibitor in males; Effect on 5-HT extraction from circulation of female fetuses (OCT3 [1]; 100 µM antidepressant, female placentas): prone to inhibition; IC50 (OCT3 [4]): 4.39 nM
CN[C@H]1CC[C@@H](c2ccc(Cl)c(Cl)c2)c2ccccc21 [Sertraline, sertraline hydrochloride]	–	–	–	susceptible to inhibition	–
COc1ccc(C(CN(C)C)C2(O)CCCCC2)cc1 (centres unmarked) [Venlafaxine, venlafaxine hydrochloride]	–	–	–	susceptible to inhibition	–
CCN1/C(=C/c2ccc3ccccc3[n+]2CC)C=Cc2ccccc21.[I-] [decynium-22]	–	–	–	–	Effect of model OCT3 inhibitor on 5-HT extraction from fetal circulation (OCT3 [1]; 10 µM decynium-22): sensitive to co-administration of decynium-22
